Among the data in ChEMBL document CHEMBL2034881, “Inverse Virtual Screening allows the discovery of the biological activity of natural compounds” (Bioorg Med Chem, 2012) are IC50 values, retold here.

The target of assay [1] is Protein kinase C alpha type (Homo sapiens, UniProt P17252). Description: Inhibition of human PKC alpha assessed as inhibition of [33P] incorporation into substrate after 60 mins by scintillation counting.
Assay [2] concerns the target T1, 3-phosphoinositide-dependent protein kinase 1 (Homo sapiens, UniProt O15530).
T1 sequence (O15530 whole entry): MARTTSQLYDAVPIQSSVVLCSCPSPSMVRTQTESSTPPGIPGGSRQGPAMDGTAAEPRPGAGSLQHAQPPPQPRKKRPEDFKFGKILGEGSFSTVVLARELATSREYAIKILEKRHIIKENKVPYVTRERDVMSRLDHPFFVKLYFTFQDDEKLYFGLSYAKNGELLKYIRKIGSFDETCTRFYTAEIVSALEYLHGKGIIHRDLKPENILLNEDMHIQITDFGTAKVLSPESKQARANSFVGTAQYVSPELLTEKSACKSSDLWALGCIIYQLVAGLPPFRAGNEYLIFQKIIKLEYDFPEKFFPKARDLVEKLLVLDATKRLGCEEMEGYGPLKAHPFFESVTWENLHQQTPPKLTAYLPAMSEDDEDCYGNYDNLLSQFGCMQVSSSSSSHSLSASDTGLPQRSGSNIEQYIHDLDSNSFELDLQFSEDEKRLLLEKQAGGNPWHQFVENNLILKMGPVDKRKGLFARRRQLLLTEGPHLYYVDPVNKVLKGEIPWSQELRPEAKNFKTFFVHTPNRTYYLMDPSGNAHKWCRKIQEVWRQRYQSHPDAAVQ
Kind of assay: Inhibition of human PDK1 assessed as inhibition of [33P] incorporation into substrate after 60 mins by scintillation counting.

Assay [3] deals with Protein kinase C theta type (Homo sapiens, UniProt Q04759). Kind of assay: Inhibition of human PKC theta assessed as inhibition of [33P] incorporation into substrate after 60 mins by scintillation counting.
Chain of Protein kinase C theta type (Q04759 whole entry): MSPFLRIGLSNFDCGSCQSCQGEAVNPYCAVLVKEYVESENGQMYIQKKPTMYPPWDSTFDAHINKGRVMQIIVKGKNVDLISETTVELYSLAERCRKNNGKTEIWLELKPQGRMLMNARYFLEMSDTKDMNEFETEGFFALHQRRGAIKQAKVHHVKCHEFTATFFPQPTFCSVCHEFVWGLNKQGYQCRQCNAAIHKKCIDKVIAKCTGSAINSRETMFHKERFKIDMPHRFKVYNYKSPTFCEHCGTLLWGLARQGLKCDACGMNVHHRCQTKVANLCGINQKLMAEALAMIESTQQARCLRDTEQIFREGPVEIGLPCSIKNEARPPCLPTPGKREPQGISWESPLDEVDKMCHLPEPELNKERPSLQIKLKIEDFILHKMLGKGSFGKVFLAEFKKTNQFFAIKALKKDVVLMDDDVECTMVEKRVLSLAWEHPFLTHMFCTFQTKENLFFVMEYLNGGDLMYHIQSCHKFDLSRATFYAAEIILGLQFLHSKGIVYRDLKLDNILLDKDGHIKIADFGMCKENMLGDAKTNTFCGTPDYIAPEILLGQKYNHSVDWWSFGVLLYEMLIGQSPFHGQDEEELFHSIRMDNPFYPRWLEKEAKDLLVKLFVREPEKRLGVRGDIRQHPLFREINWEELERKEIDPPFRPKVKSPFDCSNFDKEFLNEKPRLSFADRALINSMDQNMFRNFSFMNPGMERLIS

pIC50: −log10 of the molar value. A value given as a limit tells only on which side of the number the result lay.

For `COc1cc(O)c(CC=C(C)C)c2c1C(=O)CC(c1ccc(O)cc1)O2` (stereo unspecified) [ISOXANTHOHUMOL], the negative-log IC50 (pIC50) (in general, −log10 of the IC50, conventionally taken in molar units) in assay [1] is 4.34; in assay [2] it was 4.23; in assay [3], 4.50.
For `COc1cc(O)c(CC=C(C)C)c(O)c1C(=O)/C=C/c1ccc(O)cc1` [XANTHOHUMOL], the values for the pIC50 in assay [1], in assay [2] and in assay [3] were less than 4.00, 5.18 and less than 4.00, respectively.
